Data reported in article doi:10.1101/208439v1 (biorxiv, 2017).
Like-named read-outs stand apart in the source and are kept apart here.

Columns and labels:
[1] = target: T1, NSD2 (Homo sapiens, UniProt O96028, E1099K); assay: HotSpot [3H]SAM filter-binding methyltransferase assay; format: biochemical
T1 construct: full length (residues 2-1365), N-terminal His tag, insect cell/baculovirus
T1 sequence (O96028 2-1365 E1099K): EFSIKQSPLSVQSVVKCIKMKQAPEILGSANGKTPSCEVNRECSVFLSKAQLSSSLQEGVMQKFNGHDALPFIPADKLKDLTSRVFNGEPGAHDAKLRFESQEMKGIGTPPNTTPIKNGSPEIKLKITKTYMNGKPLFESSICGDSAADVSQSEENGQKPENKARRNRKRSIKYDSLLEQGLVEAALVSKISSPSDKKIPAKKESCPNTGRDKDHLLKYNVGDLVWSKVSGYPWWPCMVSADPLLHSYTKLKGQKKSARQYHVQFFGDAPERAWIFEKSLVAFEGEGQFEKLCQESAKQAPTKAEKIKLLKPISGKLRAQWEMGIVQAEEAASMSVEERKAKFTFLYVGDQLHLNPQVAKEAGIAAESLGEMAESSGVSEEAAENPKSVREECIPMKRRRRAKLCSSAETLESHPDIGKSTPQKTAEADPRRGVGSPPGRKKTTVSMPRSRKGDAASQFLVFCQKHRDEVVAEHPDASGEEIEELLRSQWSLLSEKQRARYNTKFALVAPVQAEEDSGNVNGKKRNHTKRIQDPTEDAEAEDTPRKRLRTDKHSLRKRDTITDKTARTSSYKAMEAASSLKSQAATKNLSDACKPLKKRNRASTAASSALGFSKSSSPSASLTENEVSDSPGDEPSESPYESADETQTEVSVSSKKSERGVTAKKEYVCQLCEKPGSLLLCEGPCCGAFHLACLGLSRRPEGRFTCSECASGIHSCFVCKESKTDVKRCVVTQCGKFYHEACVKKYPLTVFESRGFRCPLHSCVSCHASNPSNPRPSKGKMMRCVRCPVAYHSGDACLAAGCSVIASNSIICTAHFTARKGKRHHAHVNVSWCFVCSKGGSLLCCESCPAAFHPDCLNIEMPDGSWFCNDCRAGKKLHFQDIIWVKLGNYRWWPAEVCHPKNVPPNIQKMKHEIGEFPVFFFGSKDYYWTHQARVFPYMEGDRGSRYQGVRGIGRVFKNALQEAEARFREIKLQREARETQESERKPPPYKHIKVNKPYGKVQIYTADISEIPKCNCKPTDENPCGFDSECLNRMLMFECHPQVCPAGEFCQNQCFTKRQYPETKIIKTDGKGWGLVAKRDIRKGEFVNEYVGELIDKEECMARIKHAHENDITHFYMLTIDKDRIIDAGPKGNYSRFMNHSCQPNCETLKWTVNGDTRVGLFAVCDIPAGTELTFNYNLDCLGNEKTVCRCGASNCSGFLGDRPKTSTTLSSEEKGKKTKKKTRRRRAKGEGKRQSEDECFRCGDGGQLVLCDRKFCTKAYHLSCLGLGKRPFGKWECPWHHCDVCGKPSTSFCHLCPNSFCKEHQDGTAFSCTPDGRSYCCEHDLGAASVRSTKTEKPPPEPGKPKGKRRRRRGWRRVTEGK

[2] = target: T2, EZH2 Complex (Homo sapiens, UniProt Q15910); assay: as above; format: biochemical
T2 construct: five-member complex, Flag-EED, other subunits His-tagged, insect cells; with Zinc finger protein AEBP2; Polycomb protein EED; Polycomb protein SUZ12
T2 sequence (Q15910 2-746): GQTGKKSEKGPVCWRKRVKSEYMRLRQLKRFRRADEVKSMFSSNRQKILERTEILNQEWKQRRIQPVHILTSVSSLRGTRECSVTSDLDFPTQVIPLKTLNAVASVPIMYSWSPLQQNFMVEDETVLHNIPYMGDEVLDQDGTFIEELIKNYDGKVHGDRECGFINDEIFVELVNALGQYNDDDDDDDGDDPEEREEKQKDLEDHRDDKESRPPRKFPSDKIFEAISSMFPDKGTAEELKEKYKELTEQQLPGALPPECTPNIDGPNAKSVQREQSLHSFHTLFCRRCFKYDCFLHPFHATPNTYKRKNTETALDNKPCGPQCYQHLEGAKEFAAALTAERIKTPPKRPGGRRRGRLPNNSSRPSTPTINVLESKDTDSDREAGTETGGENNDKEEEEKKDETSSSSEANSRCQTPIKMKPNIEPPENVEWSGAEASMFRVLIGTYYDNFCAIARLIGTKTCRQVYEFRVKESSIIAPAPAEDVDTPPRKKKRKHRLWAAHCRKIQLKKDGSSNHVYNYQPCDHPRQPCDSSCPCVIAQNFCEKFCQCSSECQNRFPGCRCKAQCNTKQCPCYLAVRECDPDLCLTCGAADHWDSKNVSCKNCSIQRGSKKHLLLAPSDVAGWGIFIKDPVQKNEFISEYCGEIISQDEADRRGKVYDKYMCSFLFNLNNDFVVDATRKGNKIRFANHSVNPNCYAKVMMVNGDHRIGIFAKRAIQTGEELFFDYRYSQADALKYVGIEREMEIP
T2 sequence (O75530 2-441 partner): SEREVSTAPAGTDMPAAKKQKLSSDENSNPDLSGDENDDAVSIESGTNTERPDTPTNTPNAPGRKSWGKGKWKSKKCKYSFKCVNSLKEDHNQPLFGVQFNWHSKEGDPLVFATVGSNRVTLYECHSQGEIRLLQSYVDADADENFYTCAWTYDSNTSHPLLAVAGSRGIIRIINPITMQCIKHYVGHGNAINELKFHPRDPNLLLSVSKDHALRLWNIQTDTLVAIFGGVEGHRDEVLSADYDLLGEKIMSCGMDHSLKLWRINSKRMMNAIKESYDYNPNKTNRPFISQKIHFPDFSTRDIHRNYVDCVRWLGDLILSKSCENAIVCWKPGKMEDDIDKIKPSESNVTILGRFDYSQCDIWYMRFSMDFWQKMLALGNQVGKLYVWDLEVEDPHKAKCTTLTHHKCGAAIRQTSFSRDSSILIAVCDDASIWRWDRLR
T2 sequence (Q15022 2-739 partner): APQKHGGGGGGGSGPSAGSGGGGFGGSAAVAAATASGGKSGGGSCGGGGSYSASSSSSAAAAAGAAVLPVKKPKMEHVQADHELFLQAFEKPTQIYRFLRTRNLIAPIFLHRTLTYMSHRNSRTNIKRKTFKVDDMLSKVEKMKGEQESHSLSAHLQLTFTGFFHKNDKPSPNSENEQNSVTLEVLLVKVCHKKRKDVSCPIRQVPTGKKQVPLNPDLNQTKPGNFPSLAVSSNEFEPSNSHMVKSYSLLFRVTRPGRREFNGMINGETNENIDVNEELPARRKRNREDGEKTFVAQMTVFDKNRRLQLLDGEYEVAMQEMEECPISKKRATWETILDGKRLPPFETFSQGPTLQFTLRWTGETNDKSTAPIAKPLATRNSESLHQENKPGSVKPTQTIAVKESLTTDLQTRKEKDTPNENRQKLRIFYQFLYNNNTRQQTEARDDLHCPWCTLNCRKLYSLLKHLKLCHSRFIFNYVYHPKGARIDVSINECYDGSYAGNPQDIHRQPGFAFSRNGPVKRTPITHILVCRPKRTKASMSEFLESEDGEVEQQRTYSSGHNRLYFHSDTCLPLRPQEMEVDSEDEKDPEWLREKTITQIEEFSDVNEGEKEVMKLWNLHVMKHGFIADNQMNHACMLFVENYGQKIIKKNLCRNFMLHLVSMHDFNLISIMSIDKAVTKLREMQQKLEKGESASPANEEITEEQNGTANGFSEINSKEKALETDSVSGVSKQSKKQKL
T2 sequence (Q09028 2-425 partner): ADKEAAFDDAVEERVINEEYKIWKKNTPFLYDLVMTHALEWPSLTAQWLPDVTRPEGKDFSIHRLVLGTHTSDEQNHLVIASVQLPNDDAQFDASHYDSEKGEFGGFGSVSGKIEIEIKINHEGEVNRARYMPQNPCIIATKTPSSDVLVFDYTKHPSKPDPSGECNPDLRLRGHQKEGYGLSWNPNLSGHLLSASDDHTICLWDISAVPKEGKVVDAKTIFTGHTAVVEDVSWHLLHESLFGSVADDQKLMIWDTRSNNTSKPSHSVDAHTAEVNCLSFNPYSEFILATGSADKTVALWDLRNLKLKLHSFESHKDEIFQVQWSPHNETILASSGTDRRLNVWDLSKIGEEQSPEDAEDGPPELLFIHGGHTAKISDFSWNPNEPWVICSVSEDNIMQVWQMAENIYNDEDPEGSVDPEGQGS
T2 sequence (Q6ZN18 2-517 partner): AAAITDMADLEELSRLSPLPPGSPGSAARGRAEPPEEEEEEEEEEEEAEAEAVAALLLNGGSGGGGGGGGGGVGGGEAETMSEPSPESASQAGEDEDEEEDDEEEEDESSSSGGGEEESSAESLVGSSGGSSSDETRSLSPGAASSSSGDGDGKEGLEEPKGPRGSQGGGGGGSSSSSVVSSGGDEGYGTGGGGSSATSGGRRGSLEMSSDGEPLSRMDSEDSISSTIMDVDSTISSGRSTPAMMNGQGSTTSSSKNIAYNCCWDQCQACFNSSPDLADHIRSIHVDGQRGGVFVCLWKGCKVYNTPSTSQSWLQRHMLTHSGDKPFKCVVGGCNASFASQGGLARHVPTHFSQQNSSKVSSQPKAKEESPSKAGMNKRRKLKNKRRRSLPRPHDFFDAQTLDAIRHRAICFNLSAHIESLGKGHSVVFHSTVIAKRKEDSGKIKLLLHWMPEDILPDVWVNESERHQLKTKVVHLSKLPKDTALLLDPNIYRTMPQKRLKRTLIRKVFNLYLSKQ

[3] = target: DNMT3a (Homo sapiens, UniProt Q9Y6K1); assay: biochemical
[4] = target: SMYD2 (Homo sapiens, UniProt Q9NRG4); assay: biochemical
Sequence of SMYD2 (Q9NRG4 whole entry): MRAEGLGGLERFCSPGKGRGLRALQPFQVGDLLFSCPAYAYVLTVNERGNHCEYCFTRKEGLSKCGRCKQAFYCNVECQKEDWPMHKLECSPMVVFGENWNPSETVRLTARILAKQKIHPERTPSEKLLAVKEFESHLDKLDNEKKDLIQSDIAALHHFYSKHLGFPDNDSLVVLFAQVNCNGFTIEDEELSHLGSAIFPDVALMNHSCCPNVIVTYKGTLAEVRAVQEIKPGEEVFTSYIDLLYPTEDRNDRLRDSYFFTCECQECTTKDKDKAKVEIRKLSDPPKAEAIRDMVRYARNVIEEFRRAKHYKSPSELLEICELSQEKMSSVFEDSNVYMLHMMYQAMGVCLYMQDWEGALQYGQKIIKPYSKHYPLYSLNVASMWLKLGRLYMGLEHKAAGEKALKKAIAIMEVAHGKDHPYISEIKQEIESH

[5] = target: DNMT1 (Homo sapiens, UniProt P26358); assay: biochemical
Sequence of DNMT1 (P26358 whole entry, the tested form may be a part): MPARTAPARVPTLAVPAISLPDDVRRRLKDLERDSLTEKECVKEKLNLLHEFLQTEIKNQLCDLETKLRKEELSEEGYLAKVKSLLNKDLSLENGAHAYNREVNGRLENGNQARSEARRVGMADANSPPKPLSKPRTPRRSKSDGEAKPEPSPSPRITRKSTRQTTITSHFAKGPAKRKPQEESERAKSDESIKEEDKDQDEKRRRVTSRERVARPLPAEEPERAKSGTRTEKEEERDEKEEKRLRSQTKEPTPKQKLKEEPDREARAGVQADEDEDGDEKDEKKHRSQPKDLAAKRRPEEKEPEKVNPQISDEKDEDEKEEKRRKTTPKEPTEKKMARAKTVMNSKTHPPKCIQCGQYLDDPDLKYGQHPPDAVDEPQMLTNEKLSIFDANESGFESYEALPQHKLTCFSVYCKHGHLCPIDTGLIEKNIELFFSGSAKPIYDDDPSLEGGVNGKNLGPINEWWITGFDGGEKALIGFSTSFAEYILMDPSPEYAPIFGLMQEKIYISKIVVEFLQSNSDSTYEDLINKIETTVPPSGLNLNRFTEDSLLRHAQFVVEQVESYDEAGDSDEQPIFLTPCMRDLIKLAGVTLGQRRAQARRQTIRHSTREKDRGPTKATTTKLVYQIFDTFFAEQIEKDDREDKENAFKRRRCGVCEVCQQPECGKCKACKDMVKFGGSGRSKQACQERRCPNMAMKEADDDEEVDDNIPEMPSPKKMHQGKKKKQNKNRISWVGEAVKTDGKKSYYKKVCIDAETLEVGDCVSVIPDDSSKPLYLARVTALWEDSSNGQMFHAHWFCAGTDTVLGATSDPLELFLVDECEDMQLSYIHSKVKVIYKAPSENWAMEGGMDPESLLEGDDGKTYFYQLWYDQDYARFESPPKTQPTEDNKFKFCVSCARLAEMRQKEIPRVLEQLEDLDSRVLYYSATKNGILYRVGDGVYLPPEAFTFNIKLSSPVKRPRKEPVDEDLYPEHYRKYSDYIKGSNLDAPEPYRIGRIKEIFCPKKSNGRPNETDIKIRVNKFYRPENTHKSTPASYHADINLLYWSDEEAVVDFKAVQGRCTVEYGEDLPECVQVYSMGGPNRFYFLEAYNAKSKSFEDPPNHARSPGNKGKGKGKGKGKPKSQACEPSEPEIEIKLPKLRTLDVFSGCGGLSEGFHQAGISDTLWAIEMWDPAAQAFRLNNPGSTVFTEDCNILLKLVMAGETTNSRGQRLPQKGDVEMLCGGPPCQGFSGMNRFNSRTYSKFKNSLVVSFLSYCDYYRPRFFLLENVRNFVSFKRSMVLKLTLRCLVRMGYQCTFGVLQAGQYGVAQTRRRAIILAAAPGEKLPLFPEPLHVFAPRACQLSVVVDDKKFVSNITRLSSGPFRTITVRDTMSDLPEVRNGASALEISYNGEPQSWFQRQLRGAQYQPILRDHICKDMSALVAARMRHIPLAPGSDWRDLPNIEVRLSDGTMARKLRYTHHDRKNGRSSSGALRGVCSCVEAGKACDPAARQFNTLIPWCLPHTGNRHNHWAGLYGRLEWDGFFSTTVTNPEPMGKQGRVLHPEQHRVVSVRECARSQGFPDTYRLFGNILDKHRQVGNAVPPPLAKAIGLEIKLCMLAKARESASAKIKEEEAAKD

[6] = target: ASH1L (Homo sapiens, UniProt Q9NR48); assay: HotSpot [3H]SAM filter-binding methyltransferase assay; format: biochemical; set-up: residues 2046-2330, N-terminal His tag, E. coli
[7] = target: MLL1 Complex (Homo sapiens, UniProt Q03164); assay: as above; format: biochemical; set-up: gene KMT2A; five-member complex, His-tagged subunits, E. coli; ASH2L isoform of NM_001105214; with WD repeat-containing protein 5; Set1/Ash2 histone methyltransferase complex subunit ASH2; Protein dpy-30 homolog
[8] = nucleosomes, […] SAM, pH […] MgCl2, […] DTT, […] °C, single experiment
[9] = read-out: DA3003-1 IC50, inhibitor

CC1(C)CCC(CN2CCN(c3ccc(C(=O)NS(=O)(=O)c4ccc(NCC5CCOCC5)c([N+](=O)[O-])c4)c(Oc4cnc5[nH]ccc5c4)c3)CC2)=C(c2ccc(Cl)cc2)C1 [ABT-199]
IC50 [1]: 2.2 µM
IC50 [2]: 23 µM
IC50 [3]: 18 µM
IC50 [4]: 44 µM
IC50 [5]: 44 µM
IC50 [6]: 3.3 µM
IC50 [7]: 0.72 µM

O=C1C(Cl)=C(NCCN2CCOCC2)C(=O)c2ncccc21 [DA3003-1]
IC50 [1, 8]: 0.11 µM
IC50 [2]: 0.46 µM
IC50 [3, 9]: 1.1 µM
IC50 [4, 9]: 1.7 µM
IC50 [5, 9]: 1.7 µM
IC50 [6]: 0.2 µM
IC50 [7]: 0.25 µM

COc1cccc(-n2nc(C(=O)O)cc2-c2ccc(C3CCCCC3)c(Cl)c2)c1 [TC LPA5 4]
IC50 [1, 8]: 7.2 µM
IC50 ([2]; core histone, […] SAM, pH […] EDTA, […] DTT, […] °C, single experiment): 40 µM
IC50 [3]: 16 µM
IC50 [4]: 21 µM
IC50 [5]: 12 µM
IC50 [6, 8]: 9.2 µM
IC50 [7, 8]: 3.2 µM
